# According to the supplement of paper PMC10307832:
# Tests used:
# Test in all cases: relative viability (nuclei count vs DMSO), 5 days (fraction); higher = more cells survive
# VX-702 + Trametinib = compound: NC(=O)c1ccc(N(C(N)=O)c2c(F)cccc2F)nc1-c1ccc(F)cc1F [VX-702] + CC(=O)Nc1cccc(-n2c(=O)n(C3CC3)c(=O)c3c(Nc4ccc(I)cc4F)n(C)c(=O)c(C)c32)c1 [Trametinib] (partner 0.02 µM)
# Method in brief: (§1)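 Cells from lung cancer lines were seeded into 1536-well plates and, one day later, dosed by pin tool. Treatments were either a single drug or a fixed dose of an anchor drug with five library-drug doses (not always all listed) in √10 steps. After 5 days, nuclei were stained in a one-step fixation (final 0.05% Triton X-100, 1% formaldehyde, 1 ug/ml Hoechst) and counted on 4× images, and relative viability is the treated-to-vehicle nuclei ratio, as the median of duplicate plates.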
# VX-702 + Pictilisib = compound: NC(=O)c1ccc(N(C(N)=O)c2c(F)cccc2F)nc1-c1ccc(F)cc1F [VX-702] + CS(=O)(=O)N1CCN(Cc2cc3nc(-c4cccc5[nH]ncc45)nc(N4CCOCC4)c3s2)CC1 [Pictilisib] (partner 1 µM)
# Method in brief: as §1
# VX-702 + Foretinib = compound: NC(=O)c1ccc(N(C(N)=O)c2c(F)cccc2F)nc1-c1ccc(F)cc1F [VX-702] + COc1cc2c(Oc3ccc(NC(=O)C4(C(=O)Nc5ccc(F)cc5)CC4)cc3F)ccnc2cc1OCCCN1CCOCC1 [Foretinib] (partner 0.25 µM)
# Method in brief: as §1
# Dabrafenib + Dasatinib = compound: CC(C)(C)c1nc(-c2cccc(NS(=O)(=O)c3c(F)cccc3F)c2F)c(-c2ccnc(N)n2)s1 [Dabrafenib] + Cc1nc(Nc2ncc(C(=O)Nc3c(C)cccc3Cl)s2)cc(N2CCN(CCO)CC2)n1 [Dasatinib] (partner 0.075 µM)
# Method in brief: as §1
Cell Line,relative viability (VX-702 + Trametinib; first compound 0.02 µM),relative viability (VX-702 + Trametinib; first compound 0.2 µM),relative viability (VX-702 + Trametinib; first compound 0.6325 µM),relative viability (VX-702 + Trametinib; first compound 2 µM),relative viability (VX-702 + Pictilisib; first compound 0.02 µM),relative viability (VX-702 + Pictilisib; first compound 0.2 µM),relative viability (VX-702 + Pictilisib; first compound 0.6325 µM),relative viability (VX-702 + Pictilisib; first compound 2 µM),relative viability (VX-702 + Foretinib; first compound 0.02 µM),relative viability (VX-702 + Foretinib; first compound 0.2 µM),relative viability (VX-702 + Foretinib; first compound 0.6325 µM),relative viability (VX-702 + Foretinib; first compound 2 µM),relative viability (Dabrafenib + Dasatinib; first compound 0.003 µM),relative viability (Dabrafenib + Dasatinib; first compound 0.009487 µM),relative viability (Dabrafenib + Dasatinib; first compound 0.03 µM),relative viability (Dabrafenib + Dasatinib; first compound 0.09487 µM),relative viability (Dabrafenib + Dasatinib; first compound 0.3 µM)
201T,0.733,0.756,0.744,0.774,0.698,0.634,0.676,0.668,0.943,0.987,1.05,1.07,0.606,0.541,0.57,0.497,0.54
A549,,,,,0.48,0.517,0.519,0.705,1.02,0.975,0.92,1.07,,,,,
A-427,0.752,0.707,0.687,0.724,0.786,0.706,0.701,0.566,1.06,1.03,0.97,1.08,,0.77,0.594,0.51,0.627
ABC-1,,,,,0.829,,0.649,0.655,1.24,0.968,0.859,1.33,0.64,0.531,,0.58,0.799
BEN,1.1,0.907,1.03,1.07,0.558,0.526,0.491,0.608,0.73,0.556,0.57,0.876,,0.334,,0.356,0.327
CAL-12T,0.368,0.371,0.321,0.329,0.482,0.185,0.536,0.534,1.05,1.09,1.01,1.28,0.493,0.434,0.476,0.325,0.42
COR-L23,0.715,0.602,0.686,0.69,0.908,0.855,0.772,1.06,1.04,1,0.995,1.38,0.448,0.441,0.555,0.455,0.425
COR-L 105,0.472,0.437,0.395,0.42,0.449,0.386,0.409,0.366,1.02,0.838,1.14,1.3,0.316,0.39,0.366,0.373,0.368
Calu-6,,,,,0.973,1.05,0.996,1.11,0.975,0.902,0.896,0.971,,,,,
ChaGo-K-1,0.948,0.903,0.859,0.844,0.73,0.3,0.591,1.12,0.867,0.892,0.893,0.901,0.477,0.487,0.56,0.586,0.559
EBC-1,,,,,0.381,0.331,0.307,0.311,0.107,0.111,0.0889,0.0899,,,,,
EKVX,0.241,0.291,0.307,0.281,0.408,0.351,0.35,0.358,0.754,0.432,0.49,0.685,,0.585,0.522,0.533,0.628
EMC-BAC-2,0.914,0.921,0.842,0.725,0.547,0.555,0.508,0.432,0.597,0.93,0.999,1.06,0.327,0.319,0.317,0.246,0.295
EPLC-272H,0.296,0.279,0.279,0.273,0.321,0.303,0.33,0.353,0.6,0.659,0.667,0.817,0.281,0.443,0.399,0.344,0.33
H3255,0.488,,0.581,0.662,0.553,0.48,0.462,0.479,1.01,0.781,0.89,0.855,0.285,0.425,0.341,0.421,0.377
HARA,0.818,,0.776,0.63,0.361,0.412,0.325,0.332,0.852,0.763,0.908,0.814,0.242,0.346,,0.294,0.264
HCC-15,0.345,0.364,0.322,0.294,0.731,0.644,0.643,0.749,0.952,0.915,0.99,0.793,0.597,0.665,0.775,0.651,0.754
HCC-44,1.11,1.06,1.05,1.1,0.726,0.552,0.479,0.522,,,,,,,,,
HCC-78,0.53,0.861,0.741,0.801,0.224,0.17,0.176,0.237,0.523,0.527,0.59,0.479,,0.492,0.483,0.251,0.408
HCC-366,0.341,0.314,0.269,0.266,0.132,0.148,0.154,0.113,0.896,0.873,0.955,0.922,0.197,0.692,0.68,0.627,0.584
HCC-827,0.55,0.501,0.515,0.425,0.856,0.701,0.99,0.355,1.07,0.988,1.07,0.787,0.44,0.384,0.287,,0.382
